The text below walks through data of patent US20080221086A1, “Novel Inhibitors of Glutaminyl Cyclase” (PROBIODRUG AG, priority 2006, published 2008).

As a reminder, the IC50 is the concentration that inhibits the measured activity by half.

For the experiment, the target named is hQC (Homo sapiens, UniProt Q16769). In words: Fluorometric assay of glutaminyl cyclase (QC) inhibition, H-Gln-βNA or H-Gln-AMC substrate. The format is biochemical. The following applies: read-out: IC50. Here is the method: All compounds were immediately tested regarding their activity as hQC inhibitors.
Sequence of hQC (Q16769 29-361): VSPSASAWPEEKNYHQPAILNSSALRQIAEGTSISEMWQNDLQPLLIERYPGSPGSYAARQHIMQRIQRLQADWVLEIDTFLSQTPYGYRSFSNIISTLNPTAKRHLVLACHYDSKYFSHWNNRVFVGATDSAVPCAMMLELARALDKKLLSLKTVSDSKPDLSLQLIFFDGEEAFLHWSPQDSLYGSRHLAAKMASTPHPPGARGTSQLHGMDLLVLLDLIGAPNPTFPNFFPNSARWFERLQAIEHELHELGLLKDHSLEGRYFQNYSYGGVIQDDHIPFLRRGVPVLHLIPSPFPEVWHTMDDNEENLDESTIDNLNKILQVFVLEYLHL
The purity of the compounds was determined by HPLC-MS. The IC50 value against hQC was measured using the fluorescent assay.
All measurements were performed with a BioAssay Reader HTS-7000Plus for microplates (Perkin Elmer) at 30° C. QC activity was evaluated fluorometrically using H-Gln-βNA. The samples consisted of 0.2 mM fluorogenic substrate, 0.25 U pyroglutamyl aminopeptidase (Unizyme, Hørsholm, Denmark) in 0.2 M Tris/HCl, pH 8.0 containing 20 mM EDTA and an appropriately diluted aliquot of QC in a final volume of 250 μl. Excitation/emission wavelengths were 320/410 nm. The assay reactions were initiated by addition of glutaminyl cyclase. QC activity was determined from a standard curve of β-naphthylamine under assay conditions. One unit is defined as the amount of QC catalyzing the formation of 1 μmol pGlu-βNA from H-Gln-βNA per minute under the described conditions.
In a second fluorometric assay, QC was activity was determined using H-Gln-AMC as substrate. Reactions were carried out at 30° C. utilizing the NOVOStar reader for microplates (BMG labtechnologies). The samples consisted of varying concentrations of the fluorogenic substrate, 0.1 U pyroglutamyl aminopeptidase (Qiagen) in 0.05 M Tris/HCl, pH 8.0 containing 5 mM EDTA and an appropriately diluted aliquot of QC in a final volume of 250 μl. Excitation/emission wavelengths were 380/460 nm. The assay reactions were initiated by addition of glutaminyl cyclase. QC activity was determined from a standard curve of 7-amino-4-methylcoumarin under assay conditions. The kinetic data were evaluated using GraFit software.
For inhibitor testing, the sample composition was the same as described above, except of the putative inhibitory compound added. For a rapid test of QC-inhibition, samples contained 4 mM of the respective inhibitor and a substrate concentration at 1 KM. For detailed investigations of the inhibition and determination of Ki-values, influence of the inhibitor on the auxiliary enzymes was investigated first. In every case, there was no influence on either enzyme detected, thus enabling the reliable determination of the QC inhibition. The inhibitory constant was evaluated by fitting the set of progress curves to the general equation for competitive inhibition using GraFit software.

Regarding `CC1=CC(C)C(C2/C(=N/c3ccc4c(c3)OCCO4)NC(=O)N2c2ccc3[nH]cnc3c2)CC1` (stereo not shown) [Compound 259, 1-(1H-Benzoimidazol-5-yl)-4-2,3-dihydro-benzo1,4dioxin-6-ylimino-5-(2,4-dimethyl-cyclohex-3-enyl)-imidazolidin-2-one], the IC50 came to 2.2 µM.
For the compound `O=C1N/C(=N/CCN2CCOCC2)C(c2ccc3ccccc3c2)N1c1ccc2[nH]cnc2c1` (stereo not shown) [Compound 233, 1-(1H-Benzoimidazol-5-yl)-4-2-morpholin-4-yl-ethylimino-5-naphthalen-2-yl-imidazolidin-2-one], the half-maximal inhibitory concentration (IC50) was 2.2 µM.
As for `O=C1N/C(=N/Cn2nnc3ccccc32)C(c2ccc3[nH]ccc3c2)N1c1ccc2[nH]cnc2c1` (stereo not shown) [Compound 173, 1-(1H-Benzoimidazol-5-yl)-4-benzotriazol-1-ylmethylimino-5-(1H-indol-5-yl)-imidazolidin-2-one], the figure is 0.004 µM; as for `O=C1N/C(=N/CCc2c[nH]c3ccccc23)C(CO)N1CCCn1ccnc1` (stereo not shown) [Compound 56, 5-Hydroxymethyl-1-(3-imidazol-1-yl-propyl)-4-2-(1H-indol-3-yl)-ethylimino-imidazolidin-2-one], 8.5 µM; as for `O=C(C/N=C1\NC(=S)N(c2ccc3[nH]cnc3c2)C1c1c(F)ccc(Cl)c1F)N1CCCC(O)C1` (stereo not shown) [Compound 134, 2-(1-(1H-benzo[d]imidazol-5-yl)-5-(3-chloro-2,6-difluorophenyl)-2-thioxoimidazolidin-4-ylideneamino)-1-(3-hydroxypiperidin-1-yl)ethanone], 2.2 µM.
The same measure for `O=C(C/N=C1\NC(=O)N(CCCn2ccnc2)C1c1ccccc1Cl)N1CCc2ccccc2C1` (stereo not shown) [Compound 71, 5-(2-Chloro-phenyl)-4-2-(3,4-dihydro-1H-isoquinolin-2-yl)-2-oxo-ethylimino-1-(3-imidazol-1-yl-propyl)-imidazolidin-2-one]: 4 µM; for `O=C1N/C(=N\C(c2ccccc2)c2ccccc2)C(c2cccc(F)c2F)N1CCCn1ccnc1` (stereo not shown) [Compound 83, 4-Benzhydrylimino-5-(2,3-difluoro-phenyl)-1-(3-imidazol-1-yl-propyl)-imidazolidin-2-one]: 7.6 µM.
As for `O=C1N/C(=N/CCc2c[nH]c3ccccc23)C(C2CCC=CO2)N1CCCn1ccnc1` (stereo not shown) [Compound 51, 5-(3,4-Dihydro-2H-pyran-2-yl)-1-(3-imidazol-1-yl-propyl)-4-2-(1H-indol-3-yl)-ethylimino-imidazolidin-2-one], the half-maximal inhibitory concentration (IC50) turned out to be 5.8 µM.
`O=C1N/C(=N\C2CCCCC2O)C(c2coc3ccccc3c2=O)N1c1ccc2[nH]cnc2c1` (stereo not shown) [Compound 297, 1-(1H-Benzoimidazol-5-yl)-4-2-hydroxy-cyclohexylimino-5-(4-oxo-4H-chromen-3-yl)-imidazolidin-2-one]: the IC50 came to 9.4 µM.
As for `O=C(C/N=C1/NC(=O)N(CCCn2ccnc2)C1CO)N1CCc2ccccc2C1` (stereo not shown) [Compound 72, 4-2-(3,4-Dihydro-1H-isoquinolin-2-yl)-2-oxo-ethylimino-5-hydroxymethyl-1-(3-imidazol-1-yl-propyl)-imidazolidin-2-one], the IC50 stood at 8.5 µM.
The same measure for `O=C(C/N=C1\NC(=S)N(c2ccc3nc[nH]c3c2)C1c1cc(Br)cs1)N1CCc2ccccc2C1` (stereo not shown) [Compound 182, 2-(1-(1H-benzo[d]imidazol-6-yl)-5-(4-bromothiophen-2-yl)-2-thioxoimidazolidin-4-ylideneamino)-1-(3,4-dihydroisoquinolin-2(1H)-yl)ethanone]: 1.3 µM; for `S=C1N/C(=N\C2CCCc3ccccc32)C(c2cccc(Br)c2)N1c1ccc2[nH]cnc2c1` (stereo not shown) [Compound 161, 1-(1H-Benzoimidazol-5-yl)-5-(3-bromo-phenyl)-4-1,2,3,4-tetrahydro-naphthalen-1-ylimino-imidazolidine-2-thione]: 5.8 µM; for `S=C1N/C(=N\C(Cc2ccccc2)c2ccccc2)C(C2=CCCCC2)N1c1ccc2[nH]cnc2c1` (stereo not shown) [Compound 240, 1-(1H-Benzoimidazol-5-yl)-5-cyclohex-1-enyl-4-1,2-diphenyl-ethylimino-imidazolidine-2-thione]: 8.5 µM.
In the case of `O=C(C/N=C1/NC(=O)N(c2ccc3nc[nH]c3c2)C1c1cc2c(cc1Br)OCO2)N1CCSCC1` (stereo not shown) [Compound 201, 1-(3H-Benzoimidazol-5-yl)-5-(6-bromo-benzo1,3dioxol-5-yl)-4-2-oxo-2-thiomorpholin-4-yl-ethylimino-imidazolidin-2-one], the IC50 stood at 4 µM.
The same measure for `O=C1N/C(=N\c2ccc3c(c2)OCCO3)C(c2ccccc2Cl)N1CCCn1ccnc1` (stereo not shown) [Compound 34, 5-(2-Chloro-phenyl)-4-2,3-dihydro-benzo1,4dioxin-6-ylimino-1-(3-imidazol-1-yl-propyl)-imidazolidin-2-one]: 4 µM.
The same measure for `O=C1N/C(=N\c2ccc3c(c2)OCCO3)C(c2cccc(Br)c2)N1c1ccc2nc[nH]c2c1` (stereo not shown) [Compound 334, 1-(3H-Benzoimidazol-5-yl)-5-(3-bromo-phenyl)-4-2,3-dihydro-benzo1,4dioxin-6-ylimino-imidazolidin-2-one]: 0.4 µM; for `O=C(C/N=C1/NC(=O)N(CCCn2ccnc2)C1C1CCC=CO1)N1CCc2ccccc2C1` (stereo not shown) [Compound 67, 4-2-(3,4-Dihydro-1H-isoquinolin-2-yl)-2-oxo-ethylimino-5-(3,4-dihydro-2H-pyran-2-yl)-1-(3-imidazol-1-yl-propyl)-imidazolidin-2-one]: 4.9 µM; for `O=C1N/C(=N\C2CCCCC2O)C(c2ccc3[nH]ccc3c2)N1c1ccc2[nH]cnc2c1` (stereo not shown) [Compound 122, 1-(1H-Benzoimidazol-5-yl)-4-2-hydroxy-cyclohexylimino-5-(1H-indol-5-yl)-imidazolidin-2-one]: 0.4 µM.
The same measure for `S=C1N/C(=N/Cn2nnc3ccccc32)C(c2ccc3c(c2)OCO3)N1c1ccc2[nH]cnc2c1` (stereo not shown) [Compound 176, 5-Benzo1,3dioxol-5-yl-1-(1H-benzoimidazol-5-yl)-4-benzotriazol-1-ylmethylimino-imidazolidine-2-thione]: 1.3 µM; for `O=C1N/C(=N\C2CCCC2)C(c2ccc3ccccc3c2)N1c1ccc2[nH]cnc2c1` (stereo not shown) [Compound 171, 1-(1H-Benzoimidazol-5-yl)-4-cyclopentylimino-5-naphthalen-2-yl-imidazolidin-2-one]: 0.004 µM.
Turning to `O=C(C/N=C1\NC(=O)N(c2ccc3nc[nH]c3c2)C1c1c(F)ccc(Cl)c1F)N1CCCCC1` (stereo not shown) [Compound 250, 1-(3H-Benzoimidazol-5-yl)-5-(3-chloro-2,6-difluoro-phenyl)-4-2-oxo-2-piperidin-1-yl-ethylimino-imidazolidin-2-one], the IC50 turned out to be 4.9 µM.
As to `CCCCC1C(=NC(C)c2ccccc2)NC(=O)N1CCCn1ccnc1` (stereo not shown) [Compound 11, 5-Butyl-1-(3-imidazol-1-yl-propyl)-4-1-phenyl-ethylimino-imidazolidin-2-one], the IC50 came to 8.7 µM.
On to `COc1cc(C/N=C2\NC(=O)N(CCCn3ccnc3)C2c2ccccc2F)cc(OC)c1OC` (stereo not shown) [Compound 28, 5-(2-Fluoro-phenyl)-1-(3-imidazol-1-yl-propyl)-4-3,4,5-trimethoxy-benzylimino-imidazolidin-2-one], for which the half-maximal inhibitory concentration (IC50) turned out to be 3.1 µM.
`COc1cc(C/N=C2/NC(=O)N(CCCn3ccnc3)C2C2CCC=CO2)cc(OC)c1OC` (stereo not shown) [Compound 24, 5-(3,4-Dihydro-2H-pyran-2-yl)-1-(3-imidazol-1-yl-propyl)-4-3,4,5-trimethoxy-benzylimino-imidazolidin-2-one]: the concentration for half-maximal inhibition (IC50) was found to be 6.7 µM.
The same measure for `Cc1ccc(C2/C(=N\Cc3ccc4[nH]ccc4c3)NC(=S)N2c2ccc3[nH]cnc3c2)cc1` (stereo not shown) [Compound 145, 1-(1H-Benzoimidazol-5-yl)-4-1H-indol-5-ylmethylimino-5-p-tolyl-imidazolidine-2-thione]: 4 µM.
As for `CC(CC1/C(=N/C2CCCc3ccccc32)NC(=O)N1c1ccc2[nH]cnc2c1)CC(C)(C)C` (stereo not shown) [Compound 197, 1-(1H-Benzoimidazol-5-yl)-4-1,2,3,4-tetrahydro-naphthalen-1-ylimino-5-(2,4,4-trimethyl-pentyl)-imidazolidin-2-one], the figure is 9.4 µM.
As for `CCc1ccccc1/N=C1\NC(=O)N(c2ccc3[nH]cnc3c2)C1c1ccc2c(c1)OCO2` (stereo not shown) [Compound 287, 5-Benzo1,3dioxol-5-yl-1-(1H-benzoimidazol-5-yl)-4-2-ethyl-phenylimino-imidazolidin-2-one], the figure is 3.1 µM; as for `O=C1N/C(=N\C2CCCc3ccccc32)C(c2cc(Br)cs2)N1c1ccc2nc[nH]c2c1` (stereo not shown) [Compound 236, 1-(3H-Benzoimidazol-5-yl)-5-(4-bromo-thiophen-2-yl)-4-1,2,3,4-tetrahydro-naphthalen-1-ylimino-imidazolidin-2-one], 2.2 µM.
